In US20150105252A1, “SUBSTITUTED PYRAZOLES AS HERBICIDES” (E I DU PONT DE NEMOURS AND COMPANY, priority 2013, published 2015):

Columns and labels:
Experiment in all cases: Test C postemergence
[1] = tested on: oat, wild; format: in vivo, Avena fatua
In short: (§1)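 Visual rating, 0–100 scale (0 no effect, 100 complete control), vs untreated controls after 13–15 d greenhouse. Pre: seeds in loam/sand, treated at sowing. Post: plants in peat-based mix, 1- to 4-leaf (2–18 cm). Solvent + surfactant formulation, non-phytotoxic.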

[2] = tested on: soybean; format: in vivo, Glycine max
In short: as §1

[3] = tested on: chickweed; format: in vivo, Stellaria media
In short: as §1

[4] = tested on: blackgrass; format: in vivo, Alopecurus myosuroides
In short: as §1

[5] = tested on: morningglory; format: in vivo, Ipomoea coccinea
In short: as §1

[6] = tested on: lambsquarters; format: in vivo, Chenopodium album; conditions: postemergence
In short: as §1

[7] = tested on: nutsedge, yellow; format: in vivo, Cyperus esculentus
In short: as §1

[8] = tested on: ryegrass, Italian; format: in vivo, Lolium multiflorum
In short: as §1

[9] = tested on: oilseed rape; format: in vivo, Brassica napus
In short: as §1

[10] = tested on: ragweed; format: in vivo, Ambrosia elation
In short: as §1

[11] = tested on: kochia; format: in vivo, Kochia scoparia
In short: as §1

[12] = tested on: waterhemp; format: in vivo, Amaranthus rudis; conditions: for Waterhemp plant response rating: scale 0 to 100
In short: as §1

[13] = tested on: johnsongrass; format: in vivo, Sorghum halepense
In short: as §1

[14] = tested on: foxtail, giant; format: in vivo, Setaria faberii
In short: as §1

[15] = tested on: barnyardgrass; format: in vivo, Echinochloa crus-galli
In short: as §1

[16] = tested on: wheat; format: in vivo, Triticum aestivum; conditions: for Wheat plant response rating: scale 0 to 100
In short: as §1

[17] = tested on: pigweed; format: in vivo, Amaranthus retroflexus
In short: as §1

[18] = Postemergence, 31 g ai/ha, visually evaluated after 13 to 15 days
[19] = postemergence, 62 g ai/ha, scale 0 to 100
[20] = postemergence, 250 g ai/ha, scale 0 to 100 (0 no effect, 100 complete control)
[21] = postemergence, 125 g ai/ha, scale 0 to 100, 0 no effect, 100 complete control

SMILES: CCCc1cc(C(=O)NCC(F)(F)F)nn1Cc1cc(C(F)(F)F)nn1C [Compound 138]
- Plant response rating (scale of 0 to 100 where 0 is no effect and 100 is complete control), Oat, Wild [1, 18]: 10
- Oat, Wild plant response rating [1, 19]: 20
- Plant response rating, Oat, Wild [1, 20]: 30
- Plant response rating, Oat, Wild [1, 21]: 10
- Plant response rating (scale of 0 to 100 where 0 is no effect and 100 is complete control), Soybean [2, 18]: 65
- Soybean plant response rating [2, 19]: 75
- Plant response rating, Soybean [2, 20]: 65
- Soybean plant response rating [2, 21]: 90
- Plant response rating (scale of 0 to 100 where 0 is no effect and 100 is complete control), Chickweed [3, 18]: 70
- Chickweed plant response rating [3, 19]: 80
- Plant response rating, Chickweed [3, 20]: 90
- Plant response rating, Chickweed [3, 21]: 80
- Plant response rating (scale of 0 to 100 where 0 is no effect and 100 is complete control), Blackgrass [4, 18]: 5
- Blackgrass plant response rating [4, 19]: 10
- Plant response rating, Blackgrass [4, 20]: 50
- Plant response rating, Blackgrass [4, 21]: 20
- Plant response rating (scale of 0 to 100 where 0 is no effect and 100 is complete control), Morningglory [5, 18]: 60
- Morningglory plant response rating [5, 19]: 85
- Plant response rating, Morningglory [5, 20]: 95
- Plant response rating, Morningglory [5, 21]: 85
- Lambsquarters plant response rating ([6]; 62 g ai/ha, scale 0 to 100): 40
- Plant response rating, Lambsquarters ([6]; 250 g ai/ha, scale 0 to 100 (0 no effect, 100 complete control)): 95
- Plant response rating, Lambsquarters ([6]; 125 g ai/ha, scale 0 to 100, 0 no effect, 100 complete control): 75
- Plant response rating (scale of 0 to 100 where 0 is no effect and 100 is complete control), Nutsedge, Yellow [7, 18]: 0
- Nutsedge, Yellow plant response rating [7, 19]: 0
- Plant response rating, Nutsedge, Yellow [7, 20]: 5
- Plant response rating, Nutsedge, Yellow [7, 21]: 5
- Plant response rating (scale of 0 to 100 where 0 is no effect and 100 is complete control), Ryegrass, Italian [8, 18]: 5
- Ryegrass, Italian plant response rating [8, 19]: 15
- Plant response rating, Ryegrass, Italian [8, 20]: 10
- Plant response rating, Ryegrass, Italian [8, 21]: 5
- Plant response rating (scale of 0 to 100 where 0 is no effect and 100 is complete control), Oilseed Rape [9, 18]: 55
- Oilseed Rape plant response rating [9, 19]: 60
- Plant response rating, Oilseed Rape [9, 20]: 60
- Plant response rating, Oilseed Rape [9, 21]: 80
- Plant response rating (scale of 0 to 100 where 0 is no effect and 100 is complete control), Ragweed [10, 18]: 10
- Ragweed plant response rating [10, 19]: 30
- Plant response rating, Ragweed [10, 20]: 60
- Plant response rating, Ragweed [10, 21]: 50
- Plant response rating (scale of 0 to 100 where 0 is no effect and 100 is complete control), Kochia [11, 18]: 100
- Kochia plant response rating [11, 19]: 90
- Plant response rating, Kochia [11, 20]: 90
- Plant response rating, Kochia [11, 21]: 90
- Plant response rating (scale of 0 to 100 where 0 is no effect and 100 is complete control), Waterhemp [12, 18]: 75
- Waterhemp plant response rating ([12]; postemergence, 62 g ai/ha): 70
- Plant response rating, Waterhemp [12, 20]: 95
- Waterhemp plant response rating ([12]; postemergence): 100
- Plant response rating (scale of 0 to 100 where 0 is no effect and 100 is complete control), Johnsongrass [13, 18]: 10
- Johnsongrass plant response rating [13, 19]: 10
- Plant response rating, Johnsongrass [13, 20]: 20
- Plant response rating, Johnsongrass [13, 21]: 10
- Plant response rating (scale of 0 to 100 where 0 is no effect and 100 is complete control), Foxtail, Giant [14, 18]: 5
- Foxtail, Giant plant response rating [14, 19]: 5
- Plant response rating, Foxtail, Giant [14, 20]: 50
- Plant response rating, Foxtail, Giant [14, 21]: 10
- Plant response rating (scale of 0 to 100 where 0 is no effect and 100 is complete control), Barnyardgrass [15, 18]: 10
- Barnyardgrass plant response rating [15, 19]: 25
- Plant response rating, Barnyardgrass [15, 20]: 65
- Plant response rating, Barnyardgrass [15, 21]: 20
- Plant response rating (scale of 0 to 100 where 0 is no effect and 100 is complete control), Wheat [16, 18]: 5
- Wheat plant response rating ([16]; postemergence, 62 g ai/ha): 5
- Plant response rating, Wheat [16, 20]: 15
- Wheat plant response rating ([16]; postemergence): 15
- Plant response rating (scale of 0 to 100 where 0 is no effect and 100 is complete control), Pigweed [17, 18]: 75
- Pigweed plant response rating [17, 19]: 85
- Plant response rating, Pigweed [17, 20]: 85
- Plant response rating, Pigweed [17, 21]: 80
